Results taken from patent publication US12590063B2, “Phenol derivative” (Sumitomo Pharma Co., Ltd., priority 2020, dated 2026).
Where two headings read alike, the source gives them in different places.

Assays:
Human TRPV1 = molecular target: T1, Human TRPV1 (Homo sapiens, UniProt Q8NER1); assay: Evaluation of agonistic properties using human TRPV1 transiently expressing cells; type: cell-based; settings: for TRPV-1-agonistic activity (in words): evaluation test for TRPV-1-agonistic properties, summary of Tables 3 and 4
T1 construct: the TRPV1 gene (GenBank NP_542435.2) had been inserted; expressed in transfected cells; host or cells: HEK293 cells (cat #CCL-82.2, ATCC), transient transfection with pcDNA3.1
T1 sequence (Q8NER1 whole entry): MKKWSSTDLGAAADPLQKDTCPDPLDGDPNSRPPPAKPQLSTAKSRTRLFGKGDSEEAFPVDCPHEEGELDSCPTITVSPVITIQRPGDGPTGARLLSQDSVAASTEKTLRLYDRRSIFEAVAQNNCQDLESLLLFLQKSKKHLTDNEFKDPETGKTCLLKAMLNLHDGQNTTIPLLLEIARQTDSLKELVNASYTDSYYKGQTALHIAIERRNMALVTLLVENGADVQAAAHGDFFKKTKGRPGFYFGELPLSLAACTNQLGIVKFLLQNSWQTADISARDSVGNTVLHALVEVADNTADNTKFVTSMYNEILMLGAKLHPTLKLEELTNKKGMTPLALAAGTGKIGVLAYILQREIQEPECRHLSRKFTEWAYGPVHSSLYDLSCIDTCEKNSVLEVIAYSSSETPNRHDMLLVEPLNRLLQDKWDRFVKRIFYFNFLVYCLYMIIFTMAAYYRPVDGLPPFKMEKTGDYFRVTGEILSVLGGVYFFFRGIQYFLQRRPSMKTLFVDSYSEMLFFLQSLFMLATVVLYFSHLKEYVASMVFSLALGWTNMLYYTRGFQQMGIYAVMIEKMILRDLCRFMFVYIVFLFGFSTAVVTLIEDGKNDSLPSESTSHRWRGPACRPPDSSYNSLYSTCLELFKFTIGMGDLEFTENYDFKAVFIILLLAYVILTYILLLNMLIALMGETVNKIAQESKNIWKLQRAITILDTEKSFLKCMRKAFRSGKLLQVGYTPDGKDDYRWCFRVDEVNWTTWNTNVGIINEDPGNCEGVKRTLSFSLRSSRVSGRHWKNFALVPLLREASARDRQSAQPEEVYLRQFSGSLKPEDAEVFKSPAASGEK
Excerpt: Test Example 1: Evaluation of Agonistic Properties Using Human TRPV1 Transiently Expressing Cells
(1) Generation of Human TRPV1 Transiently Expressing Cells
Human TRPV1 transiently expressing cells were generated and subjected to culture. Specifically, HEK293 cells (cat #CCL-82.2, ATCC) were used as host cells. Human TRPV1 and apoaequorin were transiently expressed by introducing the mammalian cell expression pcDNA3.1 vector (cat #v790-20, Invitrogen) into which the TRPV1 gene (GenBank NP_542435.2) had been inserted.
The Dulbecco's Modified Eagle's Medium (DMEM) medium (cat #11550-043, Thermo Fisher Scientific) containing 10% inactivated fetal bovine serum (cat #10270-106, Thermo Fisher Scientific) was used as the medium, and the culture was carried out in tissue culture dishes (cat #3020-100, Iwaki). During the culture, cells were collected every 2 to 3 days by treating with PBS containing 10% 2.5 g/1-trypsin/[…] solution, phenol red (cat #32777-44, Nacalai Tesque), and passage culture was carried out.
Three days after the passage, cells were collected with 10% trypsin-PBS treatment at a state of about 80% confluency, suspended in a DMEM medium containing 10% fetal bovine serum to 4000 cells/35 μl/well, and seeded into 384-well plates (cat #353962, FALCON).
The day after seeding, Viviren (cat #E6492, Promega) was added (15 μl/well) to a final concentration of 4.5 μM/HBSS (cat #14065-056, Thermo Fisher Scientific)/90 mM HEPES (cat #17514-15, Nacalai Tesque)/0.1% BSA (cat #01281-84, Nacalai Tesque), and after centrifugation, the samples were allowed to stand at room temperature for 2 hours under light-shielded conditions.
(2) Preparation of Test Compounds
For the test compounds, dimethyl sulfoxide solutions were produced at a concentration 1000 times the final concentration, and from these solutions, solutions at concentration 10 times the final concentration were prepared with Hanks/20 mmol/L HEPES/0.10% BSA (cat #01281-84, Nacalai Tesque).
(3) Evaluation of TRPV1-Agonistic Properties
FDSS7000 (Hamamatsu Photonics K.K.) was used for detection of TRPV1 agonist-stimulated luminescence signals. The test compounds were added to plates to which the cells and luminescent substrates had been added. The luminescence signals (center wavelength: 465 nm) after addition of the test compounds were measured, and the Rlu (Max−Min) was calculated.

[1] = Evaluation test for metabolic stability to S9; type: in vitro ADME; settings: liver S9 fraction, 37° C., 15 minutes, final compound concentration 10 nM
Protocol: Test Example 4: Evaluation Test for Metabolic Stability to S9
The compounds were added to a reaction solution in which the liver S9 fraction was diluted with phosphate buffer, and incubation was initiated at 37° C. (final compound concentration 10 nM, final volume 300 μL). After incubation for 15 minutes, the reaction was stopped by adding the reaction solution to acetonitrile, and centrifugation was carried out. After filtering the supernatant through a filter, the amount of compounds was determined using LC/MS/MS. From the amount of compounds obtained, the residual rate 15 minutes after the initiation of the reaction was calculated relative to the amount of compounds before the initiation of the reaction (0 minutes).

[2] = HEK293 cells transiently expressing human TRPV1 and apoaequorin, luminescence signal Rlu (Max-Min), read-out: TRPV1 EC50

SMILES	EC50 (Human TRPV1; [2])	Residual rate (%) [1]	TRPV-1-agonistic activity (in words) (Human TRPV1)	EC50 (Human TRPV1)
COc1cc(CC(=O)Nc2cccc(-c3ccc(OC(=O)c4ccccc4)cc3)c2)ccc1O [Example 3, 3′-[2-(4-hydroxy-3-methoxyphenyl)acetamido][1,1′-biphenyl]-4-yl benzoate]	341 nM	<1%		
COc1cc(CC(=O)Nc2cccc(-c3ccc(OC(=O)C(C)C)cc3)c2)ccc1O [Example 4, 3′-[2-(4-hydroxy-3-methoxyphenyl)acetamido][1,1′-biphenyl]-4-yl 2-methylpropanoate]	33.6 nM	<1%		
COc1cc(CC(=O)Nc2cccc([C@H]3CC[C@@H](OC(=O)CC4CCCCC4)CC3)c2)ccc1O [Example 5, cis-4-{3-[2-(4-hydroxy-3-methoxyphenyl)acetamido]phenyl}cyclohexyl cyclohexylacetate]	61.2 nM	90%		
COc1cc(CC(=O)Nc2cccc([C@H]3CC[C@@H](OC(=O)COc4ccccc4)CC3)c2)ccc1O [Example 6, cis-4-{3-[2-(4-hydroxy-3-methoxyphenyl)acetamido]phenyl}cyclohexyl phenoxyacetate]	5.3 nM	1%		
COc1cc(CC(=O)Nc2cccc([C@H]3CC[C@@H](OC(=O)Cc4cc(F)cc(F)c4)CC3)c2)ccc1O [Example 7, cis-4-{3-[2-(4-hydroxy-3-methoxyphenyl)acetamido]phenyl}cyclohexyl (3,5-difluorophenyl)acetate]	5.6 nM	100%		
COc1cc(CC(=O)Nc2cccc([C@H]3CC[C@@H](OC(=O)Cc4ccc(F)cc4)CC3)c2)ccc1O [Example 8, cis-4-{3-[2-(4-hydroxy-3-methoxyphenyl)acetamido]phenyl}cyclohexyl (4-fluorophenyl)acetate]	6.1 nM	89%		
COc1cc(CC(=O)Nc2cccc([C@H]3CC[C@@H](OC(=O)Cc4cccc(C)c4)CC3)c2)ccc1O [Example 9, cis-4-{3-[2-(4-hydroxy-3-methoxyphenyl)acetamido]phenyl}cyclohexyl (3-methylphenyl)acetate]	2 nM	88%		
COc1cc(CC(=O)Nc2cccc([C@H]3CC[C@@H](OC(=O)Cc4ccccc4Cl)CC3)c2)ccc1O [Example 10, cis-4-{3-[2-(4-hydroxy-3-methoxyphenyl)acetamido]phenyl}cyclohexyl (2-chlorophenyl)acetate]	4.8 nM	67%		
COc1cc(CC(=O)Nc2cccc([C@H]3CC[C@@H](OC(=O)CC4CCOCC4)CC3)c2)ccc1O [Example 11, cis-4-{3-[2-(4-hydroxy-3-methoxyphenyl)acetamido]phenyl}cyclohexyl (oxa-4-yl)acetate]	21.3 nM	91%		
COc1cc(CC(=O)Nc2cccc([C@H]3CC[C@@H](OC(=O)Cc4cccs4)CC3)c2)ccc1O [Example 13, cis-4-{3-[2-(4-hydroxy-3-methoxyphenyl)acetamido]phenyl}cyclohexyl (thiophen-2-yl)acetate]	9 nM	89%		
COc1cc(CC(=O)Nc2cccc([C@H]3CC[C@@H](OC(=O)Cc4ccc(Cl)cc4)CC3)c2)ccc1O [Example 14, cis-4-{3-[2-(4-hydroxy-3-methoxyphenyl)acetamido]phenyl}cyclohexyl (4-chlorophenyl)acetate]	6.3 nM	11%		
COc1cc(CC(=O)Nc2cccc([C@H]3CC[C@@H](OC(=O)Cc4ccccc4F)CC3)c2)ccc1O [Example 15, cis-4-{3-[2-(4-hydroxy-3-methoxyphenyl)acetamido]phenyl}cyclohexyl (2-fluorophenyl)acetate]	4.6 nM	69%	stronger TRPV-1-agonistic activity	
CCC(=O)Oc1cccc(-c2cccc(NC(=O)Cc3ccc(O)c(OC)c3)c2)c1 [Example 16, 3′-[2-(4-hydroxy-3-methoxyphenyl)acetamido][1,1′-biphenyl]-3-yl propanoate]	6.3 nM	<1%		
COc1cc(CC(=O)Nc2cccc([C@H]3CC[C@@H](OC(=O)C(C)C)CC3)c2)ccc1O [Example 17, cis-4-{3-[2-(4-hydroxy-3-methoxyphenyl)acetamido]phenyl}cyclohexyl 2-methylpropanoate]	2.6 nM	<1%	stronger TRPV-1-agonistic activity	
COc1cc(CC(=O)Nc2cccc(-c3cccc(OC(=O)Cc4ccccc4)c3)c2)ccc1O [Example 18, 3′-[2-(4-hydroxy-3-methoxyphenyl)acetamido][1,1′-biphenyl]-3-yl phenylacetate]		<1%		5.4 nM
COc1cc(CC(=O)Nc2ccc(F)c(-c3cccc(OC(=O)C(C)C)c3)c2)ccc1O [Example 19, 2′-fluoro-5′-[2-(4-hydroxy-3-methoxyphenyl)acetamido][1,1′-biphenyl]-3-yl 2-methylpropanoate]	2.7 nM	<1%	stronger TRPV-1-agonistic activity	
COc1cc(CC(=O)Nc2cc(-c3cccc(OC(=O)C(C)C)c3)ccc2OC)ccc1O [Example 20, 3′-[2-(4-hydroxy-3-methoxyphenyl)acetamido]-4′-methoxy[1,1′-biphenyl]-3-yl 2-methylpropanoate]	35.1 nM	<1%		
COc1cc(CC(=O)Nc2cccc(-c3cccc(OC(=O)C(C)C)c3)c2OC)ccc1O [Example 21, 3′-[2-(4-hydroxy-3-methoxyphenyl)acetamido]-2′-methoxy[1,1′-biphenyl]-3-yl 2-methylpropanoate]	6750 nM	<1%		
COc1cc(CC(=O)Nc2cc(-c3cccc(OC(=O)C(C)C)c3)ccc2F)ccc1O [Example 22, 4′-fluoro-3′-[2-(4-hydroxy-3-methoxyphenyl)acetamido][1,1′-biphenyl]-3-yl 2-methylpropanoate]	6.8 nM	<1%		
COc1cc(CC(=O)Nc2cccc(-c3cccc(OC(=O)C(C)C)c3)c2F)ccc1O [Example 23, 2′-fluoro-3′-[2-(4-hydroxy-3-methoxyphenyl)acetamido][1,1′-biphenyl]-3-yl 2-methylpropanoate]	15.2 nM	<1%		
COc1cc(CC(=O)Nc2cccc(-c3cccc(OC(=O)C(C)C)c3)c2)ccc1O [Example 24, 3′-[2-(4-hydroxy-3-methoxyphenyl)acetamido][1,1′-biphenyl]-3-yl 2-methylpropanoate]	3.9 nM	<1%	stronger TRPV-1-agonistic activity	
COc1cc(CC(=O)Nc2cc(-c3cccc(OC(=O)C(C)C)c3)ccn2)ccc1O [Example 25, 3-{2-[2-(4-hydroxy-3-methoxyphenyl)acetamido]pyridin-4-yl}phenyl 2-methylpropanoate]	38 nM	<1%		
COc1cc(CC(=O)Nc2cccc(-c3cccc(OC(=O)Cc4ccc(C)cc4)c3)c2)ccc1O [Example 27, 3′-[2-(4-hydroxy-3-methoxyphenyl)acetamido][1,1′-biphenyl]-3-yl (4-methylphenyl)acetate]	11.1 nM	<1%		
COc1cc(CNC(=O)c2cccc(-c3cccc(O)c3)n2)ccc1O [compound 19]	2720 nM			
